Source: patent publication US8859615B2, “Compounds, compositions and methods for reducing toxicity and treating or preventing diseases” (priority 2008, dated 2014)
Read-outs that look alike come from different tables or passages of the source.

Experiments:
[1] = tested on: human mammary carcinoma MX-1 xenografts; conditions: nude, mouse, in vivo
[2] = tested on: CCRF-CEM human T-cell acute lymphoblastic leukemia cells; test: In vitro cytotoxicity against CCRF-CEM (XTT / CCK-8 tetrazolium assay, 72 hr); conditions: for IC50: Homo sapiens, CCRF-CEM
[3] = tested on: CCRF-CEM/VBL100 vinblastine-resistant cells; test: In vitro cytotoxicity against vinblastine-resistant CCRF-CEM subline; assay type: cell-based, human; conditions: for IC50: Homo sapiens, CCRF-CEM, 72 h, CCK-8, 72-hr incubation, read-out: IC50 CCRF-CEM/Vinblastine
Protocol: The cytotoxicity IC50 of each compound was measured with the XTT assay using the 2,3-bis(2-methoxy-4-nitro-5-sulfophenyl)-5-[(phenylamino)carbonyl]-2H-tetrazolium hydroxide (XTT) microculture method as described in Scudiero et al., Cancer Res., 48:4827 (1988), the contents of which are hereby incorporated by reference in their entirety. The CCK-8 assay is a cell counting kit-8 (CCK-8) tetrazolium assay using a 96-well microplate (Dojindo Molecular Technologies, Inc., Rockville, Md.) (M. Ishiyama et al., Biol. Pharm. Bull. 19: 1518, 1996). Absorbance was measured by Powerwave a XS microplate spectrophotometer. This method described is considered a general method in vitro cytotoxicity studies.
(§1) The data in Tables 2X, 3A-E, 4, 5, and 6 were obtained using the cell counting kit-8 (CCK-8) tetrazolium assay in a 96-well microplate. Five to seven concentrations of each compound in triplicate were used, and the IC50 values were determined by CompuSyn software automation (Chou T C. and Martin N. ComboSyn, Inc., 2006) based on the median-effect equation and plot (Chou T C. J. Theor. Biol. 59:235-276, 1976; Chou T C. Pharmacol. Rev. 58: 621-681, 2006). […] The r value defines the correlation coefficient of the median-effect plot which signifies the conformity to the mass-action law principle (Chou T C. J. Theor. Biol. 59:235-276, 1976; Chou T C. Pharmacol. Rev. 58:621-681, 2006). These parameters were determined by CompuSyn simulation (available at http://www.combosyn.com).
CCRF-CEM human T-cell acute lymphoblastic leukemia cells and the corresponding vinblastine-resistant cells (CCRF-CEM/VBL100) were cultured at an initial density of 5×10^4 cells per milliliter. The cultured cells were maintained in a 5% CO2-humidified atmosphere at 37° C. in RPMI medium 1640 (GIBCO/BRL) containing penicillin (100 units/mL), streptomycin (100 μg/mL, GIBCO/BRL), and 10% heat-inactivated fetal bovine serum. The cytotoxicity of each Compound of the invention was measured using the 2,3-bis(2-methoxy-4-nitro-5-sulfophenyl)-5-[(phenylamino)carbonyl]-2H-tetrazolium hydroxide (XTT) microculture method as described in Scudiero et al., Cancer Res., 48:4827 (1988), the contents of which are hereby incorporated by reference in their entirety.
(§2) Absorbance was measured by Powerwave XS microplate spectrophotometer.

HCT-116 colon carcinoma = test: Cytotoxicity against solid tumor cells, CCK-8, 72 hrs (Table 4); assay type: cell-based; conditions: Homo sapiens
Protocol: (§3) Compounds are also evaluated against A-549 lung carcinoma and SK-OV-3 ovarian adenocarcinoma cell lines using the methodology as for Table 3. The potency order for the compounds may vary in different tumor cell lines. […] Absorbance was measured using a Powerwave XS microplate spectrophotometer.

MX-1 mammary carcinoma = test: as above; assay type: cell-based; conditions: Homo sapiens
Protocol: as §3

A-549 lung carcinoma = test: Cytotoxicity against solid tumor cells (Table 4); assay type: cell-based; conditions: Homo sapiens, A549, CCK-8, 72 hrs
Protocol: as §3

[4] = tested on: SK-OV-3 ovarian adenocarcinoma; test: Cytotoxicity against solid tumor cells (Table 4); assay type: cell-based; conditions: Homo sapiens, CCK-8, 72 hrs
Protocol: as §3

human PBMC lymphocytes = test: DNA synthesis ([3H]thymidine incorporation) in human PBMC lymphocytes (FIG. 8); assay type: cell-based
From the text: FIG. 8 show the effects of PHA and different concentrations of compounds of the invention, at different time points, on the proliferation of a culture of human lymphocytes as measured by DNA synthesis through incorporation of radiolabeled thymidine into the DNA.
The main principle and method of experiments for human PBMC lymphocytes and for mouse splenocytes stimulations were the same, since both measure immunological cell stimulation by PHA, PXT and compounds of the invention. Both the lymphocyte and the splenocyte assays measure the ^3H-dThd tracer as an indication of DNA synthesis. For PBMC lymphocytes (FIGS. 9A-9G), the experimental methods are those for splenocytes disclosed in Example 24 (FIGS. 11A-11F; FIGS. 12A-12E), except 0.282×10^6 PBMC lymphocyte cells in 198.5 μl was used, and the experimental incubation time was extended to 120 hr.
Briefly, to generate the data in Tables 8A and 8B, the compounds were tested in a [^3H] thymidine uptake experiment using PBMC human lymphocytes obtained from the New York Blood Center. PBMC human lymphocytes were exposed to compounds at 0.03, 0.1, 0.3, and 1.0 μM for 24 hours, and examined for increased [^3H] thymidine uptake. Human lymphocytes were also exposed to compounds for an extended time, e.g., 48 hrs and 72 hrs, instead of 24 hrs, in the [^3H] thymidine uptake assay, and examined to determine the extent of increased [^3H] thymidine uptake to determine if extended exposure will further increase the immune-enhancing effects of the compounds. Increased [^3H] thymidine uptake is interpreted as increased DNA synthesis, which indicates cell growth and division. In the case of immune system cells, this should result in an immune-enhancing effect. The compounds are compared by their IC50 values and/or their effect on [^3H] thymidine uptake at a given concentration and/or time point.

[5] = tested on: human lymphoblastic leukemic T-cell growth; test: Cytotoxic activity relative to stability during storage at −20° C. in DMSO (Table 10); assay type: cell-based; conditions: for IC50: Homo sapiens, CCRF-CEM, 72 h, Table 10, XTT, 72 hr
From the text: Without wishing to be bound by theory, the oxidized versions may be active metabolites. This theory provides an explanation of the delayed onset of therapeutic effects seen in the figures herein. The oxidized compounds may be active agents that are formed slowly upon metabolic oxidation. […] The active metabolites may explain the biphasic pharmacological properties of panaxytriol or Compound D that have been observed (FIGS. 9B, C, D; FIGS. 11D, E, F, and FIGS. 12D, E). […] Induction of the phase 2 enzymes may slow oxidation of the compounds (Ng et al., Tetrahedron Letters. 49: 7178-7179 (2008)).

[6] = tested on: human mammary carcinoma MX-1 xenograft; test: Therapeutic effect and body weight in nude mice bearing MX-1 xenograft, single agents
Protocol: FIGS. 1A and 1B show the therapeutic, anti-cancer effects of various dosage regimens of panaxytriol and Compound (A), respectively, given by i.v. injection in nude mice bearing human mammary carcinoma MX-1 xenograft tumors, which is an in vivo model for breast cancer. […] The compounds were administered starting on day 8.
An in vivo assay uses male athymic nude mice bearing the nu/nu gene (6 weeks of age or older, weighing between 20 and 22 g, obtainable from NCl, Frederick, Md.) into which one or more human tumor xenografts are been implanted.
Nude mice having human mammary carcinoma xenograft MX-1 were treated with panaxytriol or Compound (A) at various dosages through the slow i.v. infusion protocol by Chou et al. (Chou, T. C., et al, Proc. Natl. Acad. Sci. U.S.A. 95: 15798 (1998), the contents of which are herein incorporated by reference in their entirety).

[7] = tested on: CCRF-CEM subline resistant to TAXOL; test: In vitro cytotoxicity against TAXOL-resistant CCRF-CEM subline; assay type: cell-based, human; conditions: Homo sapiens, CCRF-CEM; Table 3D; CCK-8, 72-hr incubation; read-out: IC50 CCRF-CEM/TAXOL
Protocol: as §1, §2

[8] = mouse, in vivo
Protocol: The experimental procedure for FIG. 14 was carried out similarly to that in FIG. 1. * means P<0.1 and ** means P<0.05. Body weight was calculated as described for FIGS. 1 and 4-7.
The experiments were performed as indicated for FIG. 14, with Compound (K) being administered orally. Compound K was administered on the days indicated by the arrows at the top of the graph, and paclitaxel was administered on the days indicated by the arrows on the bottom of the graph. Body weight was calculated as described for FIGS. 1, 4-7, 14 and 15. * means P<0.1 and ** means P<0.05.

[9] = tested on: quinone reductase (NQO1) in Hepa 1c1c7 murine hepatoma cells; conditions: for comparison; cited from earlier work
[10] = 72 h, read-out: IC50 CCRF-CEM, Table 3D, CCK-8, 72-hr incubation
[11] = read-out: IC50 (in μM), cytotoxic potency against cancer cell line growth in vitro, Table 3C, cell line not given

Structure (SMILES) | IC50 [2, 10] | IC50 ([3]; Table 3D) | IC50 (HCT-116 colon carcinoma) | IC50 (MX-1 mammary carcinoma) | IC50 (A-549 lung carcinoma) | IC50 [4] | IC50 [2, 11] | IC50 [7] | reported CD value [9] | reported inducer potency [9] | also measured
O=c1[nH]cc(F)c(=O)[nH]1 [Compound 5FU, 5-fluoro-uracil] |  |  |  |  |  |  |  |  |  |  | mice died [1]: 5/8
C=C[C@@H](O)C#CC#CC[C@H]1OC(C)(C)O[C@@H]1CCCCCCC [Compound (A)] | 0.803 µM | 1120 nM | 1280 nM | 1920 nM | 3950 nM | 3000 nM |  |  |  |  | anti-cancer activity in the in vitro cytotoxicity assay [2]: active against cancer; cross-resistance to TAXOL or vinblastine ([3]; TAXOL- or vinblastine-resistant (MDR) sublines): do not appear to be cross-resistant to TAXOL or vinblastine; fold resistance in brackets (IC50 CCRF-CEM/VBL vs CCRF-CEM) ([3]; Table 3): 1.22 x; fold resistance (IC50 CCRF-CEM/VBL vs parent CCRF-CEM) ([3]; Table 3A): 1.4 fold; fold of cross-resistance (CCRF-CEM/Vinblastine vs parent cell line) ([3]; Table 3D, given as x or -fold): 1.4 fold; time of maximal stimulation of lymphocyte (human PBMC lymphocytes): 120 h; IC50 ([5]; Aug. 22, 2003 (Stored), same solution kept at −20° C. in DMSO, read-out: IC50 in μM CCRF-CEM): 2.12 µM; IC50 ([5]; Aug. 22, 2003 (Stored), same solution kept at −20° C. in DMSO, read-out: IC50 in μM CCRF-CEM/VBL): 2.37 µM; IC50 ([5]; Jul. 25, 2003 (Fresh), read-out: IC50 in μM CCRF-CEM): 1.21 ± 0.03 µM; IC50 ([5]; Jul. 25, 2003 (Fresh), read-out: IC50 in μM CCRF-CEM/VBL): 1.22 ± 0.15 µM; tumor suppression compared to the control tumor size ([6]; Day 24, i.v. injection Q2D, escalating doses from day 8, FIGS. 1A, 1B): 47.7%; antitumor effects against MX-1 xenografts ([6]; mouse, in vivo): antitumor effects; level inhibiting tumor growth (as low as) ([6]; mouse, in vivo): 10 mg/kg
CCCCCCC[C@H]1OC(C)(C)O[C@@H]1CC#CC#CC(=O)CC [Compound (J)] | 0.83 ± 0.26 µM | 1190 nM | 1090 nM | 1470 nM | 12600 nM | 13000 nM | 0.83 µM | 1720 nM |  |  | 
CCCCCCC[C@H]1OC(C)(C)O[C@@H]1CC#CC#C[C@@H](O)CC [Compound (K)] | 2.03 ± 0.13 µM | 3300 nM | 3170 nM | 3440 nM | 1020 nM | 4030 nM | 2.03 µM | 3570 nM |  |  | stability (shelf life) ([5]; compared with Compound D): more stable than Compound D; reduction of paclitaxel-induced general toxicity and neurotoxicity compared with Compound D [8]: superior to Compound D; effect of oral administration on paclitaxel toxicity ([8]; po): orally effective in Reducing the Toxicity of paclitaxel and improving recovery after treatment
C=Cc1c(C)c2cc3nc(c4c5[n-]c(cc6nc(cc1[n-]2)C(C)=C6CC)c(C)c5C(=O)[C@@H]4C(=O)OC)[C@@H](CCC(=O)OC/C=C(\C)CCC[C@H](C)CCC[C@H](C)CCCC(C)C)[C@@H]3C.[Mg+2] [chlorophyll a] |  |  |  |  |  |  |  |  | 250 µM | 24,600 U/g | 
C[S+]([O-])CCCCN=C=S (stereo not shown) [sulforaphane] |  |  |  |  |  |  |  |  | 0.2 µM | 188,000,000 U/g | 
